Several values for one entry are separate records, joined by “and”; a condition that tells them apart may be missing. Identical values can stand only once.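 Tested at 5 concentrations; 48 h exposure; 96-well plates; endpoints linearly interpolated, else capped at highest concentration. Here, GI50 denotes the concentration required for 50% inhibition of growth. TGI: total growth inhibition.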
What was measured:
Assay in all cases: growth of human tumour cells (NCI), 48 h
M14 melanoma = tested on: M14 melanoma
SW-620 colon = tested on: SW-620 colon
BT-549 breast = tested on: BT-549 breast
IGROV1 ovarian = tested on: IGROV1 ovarian
COLO 205 colon = tested on: COLO 205 colon
SK-MEL-5 melanoma = tested on: SK-MEL-5 melanoma
SF-268 CNS = tested on: SF-268 CNS
HOP-62 NSCLC = tested on: HOP-62 NSCLC
UACC-62 melanoma = tested on: UACC-62 melanoma
NCI-H460 lung = tested on: NCI-H460 lung

Structure (SMILES) | GI50 (M14 melanoma) [µM] | TGI (M14 melanoma) [µM] | GI50 (SW-620 colon) [µM] | TGI (SW-620 colon) [µM] | GI50 (BT-549 breast) [µM] | TGI (BT-549 breast) [µM] | GI50 (IGROV1 ovarian) [µM] | TGI (IGROV1 ovarian) | GI50 (COLO 205 colon) [µM] | TGI (COLO 205 colon) [µM] | GI50 (SK-MEL-5 melanoma) [µM] | TGI (SK-MEL-5 melanoma) [µM] | GI50 (SF-268 CNS) [µM] | TGI (SF-268 CNS) | GI50 (HOP-62 NSCLC) [µM] | TGI (HOP-62 NSCLC) | GI50 (UACC-62 melanoma) [µM] | TGI (UACC-62 melanoma) [µM] | GI50 (NCI-H460 lung) [µM] | TGI (NCI-H460 lung)
C[C@]12CCc3sc(NCCc4ccccc4)nc3C1=CC[C@@H]1[C@@H]2CC[C@]2(C)C(=O)CC[C@@H]12 | 3.63 | > 100 | 2.3 | 5.28 | 2.42 | > 100 | 2.6 | 6.18 µM | 3.03 | 8.77 | 4.57 | 52.7 | 4.62 | > 100 µM | 8.52 | > 100 µM | 2.67 | 10.6 | 4.47 | > 100 µM
COc1cccc(C2=C(c3c(C)n(C)c4ccccc34)C(=O)NC2=O)c1 | 21.1 | > 25 | 12.4 | > 25 | > 21.7 | > 25 | > 22.3 | > 25 µM | 14.8 | > 25 | 9.81 | > 25 | > 23.1 | > 25 µM | > 25 | > 25 µM | 12.3 | > 25 | > 25 | > 25 µM
CCN(Cc1ccc(F)cc1)c1ccc(CO)c(F)c1 | 20.4 | > 67.5 | 7.09 | > 100 | 12.5 | 39.4 | 1.26 | 5.03 µM | 10.8 | 27.6 | 10.9 | 24.2 | 24.8 | > 92.3 µM | 15.2 | > 100 µM | 1.62 | 7.42 | 3.93 | 20.4 µM
O=C(Cn1c(=O)c(-c2ccccc2)nc2ccccc21)Nc1ccc(F)cc1 | > 100 | > 100 | 67 | > 100 | 36.4 | > 100 | 89.6 | > 100 µM | > 100 | > 100 | 7.38 | > 100 | > 100 | > 100 µM | 49.8 | > 100 µM | 67.5 | > 100 | > 100 | > 100 µM
CN(C)CCNC(=O)c1cc([N+](=O)[O-])cc2c1Oc1ccccc1O2 | – | > 100 | – | > 100 | – | > 100 | – | > 100 µM | – | 33.3 | – | > 100 | – | > 100 µM | – | > 100 µM | – | 39.2 | – | > 100 µM
O=C1C(N2CC2)=C(N2CC2)C(=O)C(N2CC2)=C1N1CC1 | < 0.0211 | 0.199 | 0.419 | 6.09 | 0.318 | 1.53 | 0.312 | 2.38 µM | 0.163 | 0.404 | 0.144 | 0.359 | 0.265 | 5.31 µM | 0.0822 | 1.05 µM | 0.101 | 1.13 | – | 0.178 µM
O=C(O)C1OC1(c1cccc(Cl)c1)c1ccccc1Cl (centres undefined) | – | 42.2 | – | > 100 | – | 39 | – | > 100 µM | – | > 100 | – | 35.4 | – | 47.8 µM | – | 61.3 µM | – | 35 | – | > 100 µM
CCCCC[C@H]1C/C=C2/C(=O)C=C[C@@H]2C/C=C\CCCC(=O)O[C@@H](CCCCC)C/C=C2/C(=O)C=C[C@@H]2C/C=C\CCCC(=O)O1 | 0.273 | 1.01 | 0.135 | 0.734 | 0.32 | 1.02 | 0.123 | 0.596 µM | 0.25 | 0.671 | 0.414 | 0.791 | 0.442 | 1.75 µM | 0.536 | 1.29 µM | 0.253 | 0.783 | 0.606 | 1.48 µM
O=C(Nc1cccc(-n2cc(-c3ccncc3)c(-c3cc(O)cc(Cl)c3)n2)c1)Nc1ccc(Cl)c(C(F)(F)F)c1 | 1.72 | 3.85 | 3.29 | 10.7 | 2.25 | 6.15 | 3.81 | 12.6 µM | 2.25 | 5.17 | 1.69 | 3.23 | 3.1 | 16 µM | 3.08 | 13.4 µM | 2.08 | 4.38 | 2.59 | 7.37 µM
COC1/C=C/C(C)C(C(C)C(OC)C(C)CCC(=O)C(C)C(C/C=C/N(C)C=O)OC)OC(=O)/C=C/C=C(\C)CC(OC)CC2=CC(=O)O[C@H](C2)C(C)C(OC)CC(OC)/C=C/C(C)C(OC)C1 (some centres undefined) | 0.0215 | 0.0686 | 0.0198 | 6.95 | 0.108 | – | 0.0159 | 0.053 µM and 0.0341 µM | 0.0184 | 0.131 | 0.113 | – | 0.04 | 0.485 µM and 0.612 µM | 0.0178 | 0.0449 µM and 0.0169 µM | 0.0515 | – | 0.01 | 0.118 µM and 0.097 µM
CN1CCN(CCOc2ccc(-c3cnc4c(-c5ccc(C(F)(F)F)cc5)cnn4c3)cc2)CC1 | 1.7 | 3.25 | 1.76 | 3.27 | 1.62 | 3.04 | 1.55 | 3.06 µM | – | – | 1.63 | 3.03 | 1.7 | 3.44 µM | 1.63 | 3.55 µM | 1.69 | 3.13 | 1.16 | 2.44 µM
CNCCCn1c2c(c3ccc([N+](=O)[O-])cc3c1=O)C(=O)c1cc(OC)cnc1-2 | 0.0394 | 0.358 | 0.0349 | 1.12 | 0.373 | 2.56 | 0.205 | 2 µM | 0.0569 | 0.636 | 0.107 | 0.279 | 0.0685 | 2.17 µM | 0.03 | 0.139 µM | 0.02 | 0.122 | 0.0194 | 0.185 µM
CCCc1cc(=O)[nH]c(-n2nc(C)cc2C)n1 | 2.91 | > 100 | 3.93 | > 100 | 6.86 | > 100 | 2.31 | > 100 µM | 8.45 | > 100 | 3.18 | 47.6 | 3.19 | > 100 µM | 5.58 | > 100 µM | 2.31 | 35.7 | 1.26 | > 100 µM
Cc1cc(Cl)ccc1Nc1nc(C(F)(F)F)ccc1C(=O)N/N=C/c1ccc(Cl)cc1 | 2.34 | 7.63 | 2.15 | 11 | 1.34 | 4.71 | 3.31 | 13.6 µM | 1.63 | 3.37 | 1.52 | 3.02 | 1.35 | 10.1 µM | 2.33 | 9.22 µM | 2.14 | 5.33 | 2.37 | 9.08 µM
COc1cc2oc3cc(=O)cc4oc(-c5ccccc5)cc(c2c2c1CCC(c1ccccc1)O2)c43 (centres undefined) | – | 33.4 | – | > 100 | – | > 100 | – | > 100 µM | – | 46.1 | – | 65.1 | – | > 100 µM | – | > 100 µM | – | > 100 | – | > 100 µM
c1cc2n(n1)CCN2 | – | 5760 | – | > 10000 | – | > 10000 | – | > 10000 µM | – | > 10000 | – | > 7740 | – | 8200 µM | – | > 9550 µM | – | 6540 | – | 6710 µM
COc1cc(Nc2c(C#N)cnc3cc(OCCCN4CCN(C)CC4)c(OC)cc23)c(Cl)cc1Cl | 1.3 | 3.03 | 3.26 | 11.4 | 6.78 | 18.3 | 0.279 | 3.09 µM | 1.6 | 3.03 | 2.09 | 5.71 | 2.34 | 10.3 µM | 4.69 | 17.6 µM | 2.48 | 7.01 | 3.99 | 17.7 µM
O=CN/C=C/c1cccc(O)c1 | – | > 88.2 | – | 98.8 | – | 58.5 | – | > 88.2 µM | – | > 100 | – | > 75.6 | – | > 93.4 µM | – | 65.8 µM | – | 63.3 | – | 77.6 µM
Nc1ccc2c(SCc3ccc([N+](=O)[O-])cc3)c3ccccc3nc2c1 | – | 24.1 | – | 13.8 | – | 32.1 | – | 39.5 µM | – | 6.36 | – | 28.4 | – | 30.8 µM | – | 46.5 µM | – | 31.3 | – | 47.2 µM
COC1=CC(c2ccc[nH]2)=N/C1=C\c1[nH]c(C)c(C(=O)CCCCC(=O)NC(C)(C)C)c1C | 1.62 | 3.1 | 0.947 | 2.26 | 1.41 | 4.5 | 2.1 | 4.59 µM | 1.22 | 2.46 | 1.97 | 5.24 | 1.6 | 4.32 µM | 1.74 | 5.02 µM | 3.59 | 10.8 | 1.87 | 4.52 µM
O=c1ccn(C2CC(O)C(CO)O2)c(=O)[nH]1 (centres undefined) | > 5000 | > 5000 | > 5000 | > 5000 | > 5000 | > 5000 | > 5000 | > 5000 µM | > 5000 | > 5000 | > 5000 | > 5000 | > 5000 | > 5000 µM | > 5000 | > 5000 µM | > 5000 | > 5000 | > 5000 | > 5000 µM
O=C(N/C(=C/c1ccc(Cl)cc1Cl)c1nc2ccccc2s1)c1ccccc1 | – | 37.6 | – | 24.6 | – | 64.8 | – | 26.2 µM | – | 37.2 | – | 26.4 | – | 34 µM | – | 26.7 µM | – | 30.2 | – | 52.2 µM
CCOC(=O)c1cc2c(n1Cc1cccc(OC)c1)-c1oncc1CCC2 | 0.693 | > 100 | 0.554 | > 100 | 1.61 | > 100 | 0.968 | > 100 µM | 0.78 | 23.8 | 0.693 | 14.8 | 9.03 | > 100 µM | 3.54 | > 100 µM | 0.712 | > 100 | 3.52 | > 100 µM
COc1c(O)cc2oc(-c3ccc(O)cc3)cc(=O)c2c1O | – | > 100 | – | > 100 | – | > 100 | – | 76.9 µM | – | > 100 | – | 63.7 | – | > 100 µM | – | > 100 µM | – | 68.1 | – | > 100 µM
O=c1cc(-c2ccccc2F)[nH]c2ccc(N3CCCC3)cc12 | < 0.001 | > 100 | – | > 100 | – | > 100 | < 0.001 | – | < 0.001 | – | < 0.001 | – | < 0.001 | – | < 0.001 | > 100 µM | < 0.001 | > 100 | < 0.001 | –
COc1cccc(-c2nn(-c3ccccc3)cc2-c2ccnc(NCCCNC(=O)Nc3ccc(Cl)c(Cl)c3)c2)c1 | 1.97 | 4.45 | 3.02 | 10.1 | 3.2 | 11.2 | 4.24 | 19.4 µM | 1.87 | 3.82 | 1.75 | 3.32 | 3.32 | 13.9 µM | 3.23 | 8.88 µM | 1.91 | 4 | 3.76 | 14.7 µM
c1csc(-c2cn3nc(-c4c[nH]c5ccccc45)sc3n2)c1 | 0.75 | 15.8 | 0.434 | > 100 | 2.87 | 31.7 | 1.79 | > 100 µM | – | – | 0.714 | 15.1 | 3.84 | > 100 µM | 1.58 | 39.9 µM | 0.738 | 18.7 | 0.574 | > 100 µM
CCC(C)[C@H]1O[C@]2(C=C[C@@H]1C)C[C@@H]1C[C@@H](C/C=C(\C)[C@@H](OC3C[C@H](OC)C(O[C@H]4C[C@H](OC)[C@@H](O)[C@H](C)O4)[C@H](C)O3)[C@@H](C)/C=C/C=C3\CO[C@@H]4[C@H](O)C(C)=C[C@@H](C(=O)O1)[C@]34O)O2 (some centres undefined) | 1.04 | 2.33 | – | – | 0.864 | 1.66 | – | – | 0.86 | 1.62 | 0.991 | 2.28 | 1.01 | 2.14 µM | 1.37 | 6.53 µM | 1.53 | 7.64 | – | –
